Assay: Dehydration/re-hydration study (weight change over desiccants, then 33-95% RH, KF water content)
Format: physicochemical
Settings: for KF moisture result: dehydration/rehydration sample
Procedure: The hexahydrate produced in Example 1 was analysed as follows. Four desiccator cabinets were prepared to contain open dishes of the following saturated salt solutions, to achieve the following approximate relative humidities (RH).
Dehydration of samples was carried out by storing them over silica gel or over P2O5 at reduced pressure (65 mm Hg). All studies were performed at ambient laboratory temperature (15-22° C.).
During this study, samples were dispensed to pre-equilibrated weighing bottles as in the hygroscopicity study, and were then stored over silica gel without reduced pressure, then over […] under reduced pressure (65 mm Hg) to dehydrate the hydrate. Once a stable weight was achieved over P2O5, samples were re-hydrated by storing them at 33% RH to 95% RH, in parallel with the hygroscopicity study as described above.
Water contents were measured by coulometric KF (Karl Fischer) titration.

SMILES: COc1cc2c(cc1OC)CN(CCc1ccc(NC(=O)c3cc(OC)c(OC)cc3NC(=O)c3cnc4ccccc4c3)cc1)CC2 [Example 1, Quinoline-3-carboxylic acid (2-{4-[2-(6,7-dimethoxy-3,4-dihydro-1H-isoquinolin-2-yl)-ethyl]-phenylcarbamoyl}-4,5-dimethoxy-phenyl)-amide]
- Cumulative % change Dehydration/Rehydration (75% RH, cumulative time 2441.25 h): 1.26%
- Cumulative % change Dehydration/Rehydration (75% RH, cumulative time 2482.00 h): 1.23%
- Cumulative % change Dehydration/Rehydration (75% RH, cumulative time 2577.75 h): 1.35%
- Cumulative % change Dehydration/Rehydration (75% RH, cumulative time 2609.75 h): 1.38%
- Cumulative % change Dehydration/Rehydration (75% RH, cumulative time 2681.25 h): 1.41%
- Cumulative % change Dehydration/Rehydration (75% RH, cumulative time 2770.25 h): 1.36%
- Cumulative % change Dehydration/Rehydration (75% RH, cumulative time 2817.75 h): 1.44%
- Cumulative % change Dehydration/Rehydration (95% RH, cumulative time 2825.25 h): 2.28%
- Cumulative % change Dehydration/Rehydration (95% RH, cumulative time 2841.75 h): 2.73%
- Cumulative % change Dehydration/Rehydration (95% RH, cumulative time 2915.75 h): 3.06%
- Cumulative % change Dehydration/Rehydration (95% RH, cumulative time 2937.75 h): 3.21%
- Cumulative % change Dehydration/Rehydration (95% RH, cumulative time 2991.25 h): 3.25%
- Cumulative % change Dehydration/Rehydration (95% RH, cumulative time 3082.25 h): 3.86%
- Cumulative % change Dehydration/Rehydration (95% RH, cumulative time 3130.00 h): 4.12%
- Cumulative % change Dehydration/Rehydration (95% RH, cumulative time 3182.25 h): 3.99%
- Cumulative % change Dehydration/Rehydration (95% RH, cumulative time 3252.25 h): 4.19%
- Cumulative % change Dehydration/Rehydration (95% RH, cumulative time 3350.25 h): 4.22%
- Cumulative % change Dehydration/Rehydration (95% RH, cumulative time 3422.25 h): 4.35%
- Cumulative % change Dehydration/Rehydration (95% RH, cumulative time 3636.25 h): 5.31%
- Cumulative % change Dehydration/Rehydration (95% RH, cumulative time 4332.75 h): 5.58%
- Cumulative % change Dehydration/Rehydration (P2O5 with vacuum, cumulative time 425.00 h): −10.85%
- Cumulative % change Dehydration/Rehydration (P2O5 with vacuum, cumulative time 452.00 h): −11.00%
- Cumulative % change Dehydration/Rehydration (P2O5 with vacuum, cumulative time 476.75 h): −11.19%
- Cumulative % change Dehydration/Rehydration (P2O5 with vacuum, cumulative time 570.25 h): −11.43%
- Cumulative % change Dehydration/Rehydration (P2O5 with vacuum, cumulative time 641.00 h): −11.35%
- Cumulative % change Dehydration/Rehydration (P2O5 with vacuum, cumulative time 760.50 h): −11.51%
- Cumulative % change Dehydration/Rehydration (P2O5 with vacuum, cumulative time 904.25 h): −11.46%
- Cumulative % change Dehydration/Rehydration (P2O5 with vacuum, cumulative time 1071.00 h): −11.54%
- Cumulative % change Dehydration/Rehydration (P2O5 with vacuum, cumulative time 1144.00 h): −11.48%
- initial water content of the sample (before dehydration): 12.5%
- notional water content after dehydration and re-hydration at 33% RH (corresponding to the net weight change): about 11.5%
- net weight change after dehydration and re-hydration at 33% RH (dehydrated then re-hydrated at 33% RH): about −1%
- final weight change on dehydration (dehydration over increasing desiccating conditions): −11.5%
- KF moisture result (95% RH, cumulative time 4332.75 h (end)): (15.81) % w/w
- KF moisture result (printed in first 33% RH row (1147.25 h), after dehydration over P2O5): (3.82) % w/w
- KF moisture result (printed in first row (silica, no vacuum, 3.00 h), initial value before dehydration): (12.53) % w/w
- Cumulative % change Dehydration/Rehydration (re-hydration at 33% RH, cumulative time 1147.25 h): −6.61%
- Cumulative % change Dehydration/Rehydration (re-hydration at 33% RH, cumulative time 1150.75 h): −4.80%
- Cumulative % change Dehydration/Rehydration (re-hydration at 33% RH, cumulative time 1168.00 h): −2.47%
- Cumulative % change Dehydration/Rehydration (re-hydration at 33% RH, cumulative time 1240.75 h): −0.68%
- Cumulative % change Dehydration/Rehydration (re-hydration at 33% RH, cumulative time 1268.50 h): −0.62%
- Cumulative % change Dehydration/Rehydration (re-hydration at 33% RH, cumulative time 1312.50 h): −0.62%
- Cumulative % change Dehydration/Rehydration (re-hydration at 33% RH, cumulative time 1431.25 h): −0.83%
- Cumulative % change Dehydration/Rehydration (re-hydration at 33% RH, cumulative time 1502.25 h): −0.66%
- Cumulative % change Dehydration/Rehydration (re-hydration at 33% RH, cumulative time 1672.50 h): −0.91%
- Cumulative % change Dehydration/Rehydration (re-hydration at 33% RH, cumulative time 1741.50 h): −0.97%
- Cumulative % change Dehydration/Rehydration (silica, no vacuum, cumulative time 3.00 h): −2.29%
- Cumulative % change Dehydration/Rehydration (silica, no vacuum, cumulative time 8.50 h): −3.58%
- Cumulative % change Dehydration/Rehydration (silica, no vacuum, cumulative time 24.50 h): −5.92%
- Cumulative % change Dehydration/Rehydration (silica, no vacuum, cumulative time 30.50 h): −6.39%
- Cumulative % change Dehydration/Rehydration (silica, no vacuum, cumulative time 56.00 h): −8.06%
- Cumulative % change Dehydration/Rehydration (silica, no vacuum, cumulative time 80.00 h): −8.50%
- Cumulative % change Dehydration/Rehydration (silica, no vacuum, cumulative time 237.50 h): −8.96%
- Cumulative % change Dehydration/Rehydration (silica, no vacuum, cumulative time 288.50 h): −9.07%
- Cumulative % change Dehydration/Rehydration (silica, with vacuum, cumulative time 308.00 h): −9.07%
- Cumulative % change Dehydration/Rehydration (silica, with vacuum, cumulative time 401.00 h): −8.76%

— patent US7524861B2, “Process for the preparation of a hydrate of an anthranilic acid derivative” (priority 2002, dated 2009)
